Measurements from patent US6010854A, “Autoantibodies to neurotransmitter receptors” (University of Utah Research Foundation, priority 1997, dated 2000).

Key:
Type in all cases: cell-based
[1] = system: glutamate receptors, fetal mouse cortical neurons in culture; test: Whole cell currents evoked in voltage-clamped neurons in culture; conditions: 100 μM NMDA with 1 μM glycine, -75 mV, 1 mM MgCl2
Procedure: To examine functional consequences of antibody binding to glutamate receptors, electrophysiological methods were used to record whole cell currents from mouse cortical neurons in culture. Neuronal cultures from fetal (E14-16) mouse cortical and hippocampal structures were prepared on poly-L-lysine-coated 35 mm "FALCON" dishes according to G. Skeen et al., 44 Molec. Pharmacol. 443 (1993), hereby incorporated by reference. Cultures were fed every other day using a growth medium consisting of DMEM, 10% horse serum, 30 mM glucose, and 0.5 mM glutamine. Arabinosylcytosine (ARA-C) was added for 1 day during the first week in culture to suppress growth of non-neuronal cells. Electrophysiological experiments were performed on 2-5 week old cultures at room temperature. External solution consisted of 145 mM NaCl, 1.5 mM KCl, 1 mM CaCl2, 1 mM MgCl2, 10 mM Na-HEPES, 10 mM glucose, 30 mM sucrose at pH 7.4, 320 mOsm. Internal solution consisted of 153 mM CsCl, 10 mM Cs-HEPES, 4 mM MgCl2, 5 mM EGTA at pH 7.35, 300 mOsm. Solutions were designed for measurement of predominantly sodium inward currents and to block NMDA receptor currents when neurons are voltage clamped at -75 mV. […]
Currently, the composition of native GluR's and GABAR's is unknown and the potential diversity of native receptors is immense. […] Five cells are recorded for each paradigm and antibody. […]

[2] = system: currents evoked by serum from a Rasmussen's encephalitis patient, fetal mouse cortical neurons; test: Block of whole cell currents evoked by serum from a Rasmussen's encephalitis patient
Procedure: To examine functional consequences of antibody binding to glutamate receptors, electrophysiological methods were used to record whole cell currents from mouse cortical neurons in culture. Neuronal cultures from fetal (E14-16) mouse cortical and hippocampal structures were prepared on poly-L-lysine-coated 35 mm "FALCON" dishes according to G. Skeen et al., 44 Molec. Pharmacol. 443 (1993), hereby incorporated by reference. Cultures were fed every other day using a growth medium consisting of DMEM, 10% horse serum, 30 mM glucose, and 0.5 mM glutamine. Arabinosylcytosine (ARA-C) was added for 1 day during the first week in culture to suppress growth of non-neuronal cells. Electrophysiological experiments were performed on 2-5 week old cultures at room temperature. External solution consisted of 145 mM NaCl, 1.5 mM KCl, 1 mM CaCl2, 1 mM MgCl2, 10 mM Na-HEPES, 10 mM glucose, 30 mM sucrose at pH 7.4, 320 mOsm. Internal solution consisted of 153 mM CsCl, 10 mM Cs-HEPES, 4 mM MgCl2, 5 mM EGTA at pH 7.35, 300 mOsm. Solutions were designed for measurement of predominantly sodium inward currents and to block NMDA receptor currents when neurons are voltage clamped at -75 mV. […] To block other currents, 0.2-1 μM tetrodotoxin (TTX), 10 μM picrotoxin, 10 nM strychnine were added to the external solution. External solution was perfused continuously at about 2 ml/min. […]

[3] = system: anti-GluR3 antibody-evoked currents, mouse cortical neurons in culture; test: Block of anti-GluR3 antibody-evoked whole cell currents; conditions: for blockage of anti-GluR3 antibody-evoked currents: CNQX 40 μM, MK-801 10 μM, peptides 0.5 mg/ml incubated with serum or IgG for 15 minutes

Molecule | current evoked by NMDA [1] | blockage of currents evoked by serum from a Rasmussen's encephalitis patient [2] | blockage of anti-GluR3 antibody-evoked currents [3] | Antibody-evoked currents reduced to % of control ([3]; 40 μM, rabbit serum 1:8, 6 cells)
CN[C@H](CC(=O)O)C(=O)O [NMDA, N-methyl-D-aspartate] | No current was evoked |  |  | 
GluR3A: synthetic peptide, amino acids 245-274 of GluR3 (SEQ ID NO:1) (NNENPMVQQFIQRWVRLDEREFPEAKNAP) |  | does not | did not block antibody-evoked currents | 
C[C@]12N[C@H](Cc3ccccc31)c1ccccc12 [MK-801, reference compound] |  |  | had no effect | 
N#Cc1cc2c(cc1[N+](=O)[O-])=NC(=O)C(=O)N=2 [CNQX, 6-cyano-7-nitro-quinoxaline-2,3-dione, reference compound] |  |  | rapid, reversible, and voltage independent | 4±20 % of control
